These results are taken from US8822533B1, “Methods and compositions for repelling and/or killing insects” (The United States of America, as represented by the …, priority 2011, dated 2014).

For one assay, the system named is Ae. aegypti mosquitoes. Nature of the assay: Sleeve bite protection assay on treated uniform fabric, mosquitoes. Format: in vivo, Aedes aegypti (Orlando, 1952). As for the experimental part: (§1) Biological Evaluation: Bite protection assays were conducted with laboratory-reared 7-12 day old mosquitoes or sand flies. The species used throughout these studies are Aedes aegypti (Orlando, 1952) and Phlebotomus papatasi sand flies (Jerusalem, 1983). Females were pre-selected using either a hand draw box or a mechanical aspirator. An assay was conducted by wearing sewn sleeves made from clothing material. Treated specimens were assayed with untreated controls to correct for the bite resistance afforded by material construction and composition. The untreated control was tested at the beginning of the experiment, followed by successively higher candidate repellent concentrations on sleeves. Sleeves were sewn from a cut out single ply trapezoidal pattern (33.2 cm×21 cm×25.5 cm height) of material. […] Permethrin was 35:65cis: trans, 95.85% technical material. Experimental repellents were received as neat samples with <5% impurities. The treatment occurred by dissolution of repellent in suitable quantity of acetone to saturate the clothing, but minimizing excess solution. Excess solution was quantified and this amount of excess was then used to calculate the estimated amount of repellent applied to the material. […] The photoperiod was 12:12. The mosquito cages were approximately 60000 cm^3 and each contained 175 to 225 female mosquitoes. […] Cages for sand fly work were slightly smaller (15000 cm^3) and constructed of acrylic for filming purposes and with screens on the exterior edges to allow air flow through the system. About 20-40 sand flies were released in cages for each assay. Assays started when the sleeved arm was inserted through the sleeve into the cage. Normally the hand was protected by a glove, but there were situations (i.e. sand fly data presented here) when the ability of a repellent to protect the untreated hand was determined. The assay periods were 15 min for the mosquitoes and 25-30 minutes for sand flies. The insects were allowed to land, probe and possibly bloodfeed during this time. At the conclusion of the experiment, all insects were knocked down or aspirated and the percentage that bloodfed of the total female test population in the cage was recorded. The protect level was calculated by Abbott's formula as a percentage reduction in bites compared to the untreated fabric control sleeve. Specific conditions for bioassays are noted with corresponding data contained in the Tables.

Assay [1] deals with Phlebotomus papatasi sand flies. Nature of the assay: Sleeve bite protection assay on treated uniform fabric, sand flies. Format: in vivo, Phlebotomus papatasi (Jerusalem, 1983). The conditions noted are these: FRACU, 25-29 minutes. The procedure: as §1
The test system of assay [2] is Mosquitoes, either Aedes aegypti (Liverpool) or Anopheles stephensi Liston. Nature of the assay: K&D module in vitro bioassay: biting protection, knockdown and mortality. Format: in vivo. The procedure:
In vitro bioassays were conducted as described by Klun et. al. (Klun, J. A., et al., J. Med. Entomol., 40: 293-299 (2005)). Each test replicate consisted of 3 treatments: a control (EtOH); a standard (Deet, 4.54 nmol/μl); and an experimental compound (pyrethroid analogs, 4.54 nmol/ul). The 3 treatments were randomly assigned to consecutive cells in 2, 6-cell reservoirs connected in series to a single water-bath pump; thus, 4 replicates could be tested/run. Tests were performed in an Air Science USA hood, with an air movement velocity of approx. 110-120 ft./min., temperature of 25-27° C., and RH of 15-25%. A 6-celled reservoir was connected to and heated by a constant-temperature (38° C.) water circulator (Lauda E100, Wobser GMGH and Co., Konigshofell, Germany).
Prior to each test, the upper surface of each reservoir was coated with a thin layer of high-vacuum silicone grease (Dow Corning Corp., Midland, Mich.), and the cells then filled (approx. 6 ml. capacity) or topped-off with either: (1) expired human red blood cells suspended in citrate-phosphate-dextrose-adenine (CPDA) solution, not more than 1 month past expiration date, and to which 110 mg ATP/35 ml. blood-CPDA had been added on the day of testing; or (2) CPDA+ATP×^−3, usually made up or diluted to 10^−3 ATP on the day of testing. The filled cells were then covered with an Edicol collagen membrane (Devro, Sandy Run, S.C.) strip, and then with a just-treated (110 μl of 4.54 nmol/μl treatment or control solution) organdy cloth (G Street Fabrics, Rockville, Md.) strip. Mosquitoes used in tests were either Aedes aegypti_(Liverpool) or Anopheles stephensi_Liston. K&D modules containing 5 adult females/cell were placed over a Teflon separator atop each reservoir; the sliding floors opened allowing access to the treated organdy cloth and membrane-covered cell; and the number of mosquitoes biting (proboscis inserted through the cloth) and/or observed to be engorged within each cell at the end of a 3-5 min. exposure period was recorded. Mosquitoes were used only once in a test, and then frozen and discarded.
Only tests in which 3 or more females fed in the control cell were analyzed, as lower feeding rates are indicative of substandard feeding readiness of that group of mosquitoes.
[…] Data were collected to record knockdown in 6 minutes, one hour and 24 hours post exposure.

The mark [3] stands for this setting: ACU (50/50 NYCO) sleeve, glove on hand, 15 min, permethrin 0.118, transfluthrin 0.108, TL-I-107 0.107, TL-I-141 0.109, TL-I-105 0.107, TL-I-73 0.102 mg/cm^2.
[4] abbreviates: ACU (50/50 NYCO) sleeve, glove on hand, Abbott's formula vs untreated sleeve, concentrations as E1.
Where [5] appears, read: ACU (50/50 NYCO) sleeve, glove on hand, concentrations as E1.
[6] abbreviates: ACU sleeve, No Glove on hand, permethrin 0.118, transfluthrin 0.108 mg/cm^2.
The mark [7] stands for this setting: ACU sleeve, stored one year then tested, concentrations as E1.
Where [8] appears, read: ACU sleeve, treated specimens stored in refrigerator for one year then tested, concentrations as E1.
Where [9] appears, read: FRACU sleeve, concentrations as E9.
The mark [10] stands for this setting: FRACU, permethrin sleeve 0.135 mg/cm^2 + untreated strip, Ultrathon (34.34% DEET) on hand.
The mark [11] stands for this setting: FRACU, permethrin sleeve 0.135 mg/cm^2 + untreated strip, hand gloved.
Where [12] appears, read: permethrin sleeve 0.135 mg/cm^2 + untreated strip, hand ungloved.
Where [13] appears, read: FRACU, untreated sleeve + treated strip, Ultrathon (34.34% DEET) on hand, TL-I-73 0.163, transfluthrin 0.158 mg/cm^2.
Where [14] appears, read: FRACU, untreated sleeve + treated strip, hand gloved, TL-I-73 0.163, transfluthrin 0.158 mg/cm^2.
Where [15] appears, read: untreated sleeve + TL-I-73 strip 0.163 mg/cm^2, hand ungloved.

For the compound `CC1(C)C(C=C(Cl)Cl)C1C(=O)OCc1cccc(Oc2ccccc2)c1` (centres unmarked) [Permethrin], the “Blood-fed #” value in the assay on Ae. aegypti mosquitoes (setting [3]) is 0 #; with Ae. aegypti mosquitoes (setting [6]) it was 32 #; in the assay with Ae. aegypti mosquitoes (setting [8]) it was 0 #; with Ae. aegypti mosquitoes (FRACU (65% Rayon, 10% Nylon, 25% Para-aramid) sleeve, permethrin 0.071, combination permethrin 0.031 + transfluthrin 0.038, transfluthrin 0.052 mg/cm^2), 24 #; in the assay with Ae. aegypti mosquitoes (setting [10]), 15 #; in the assay with Ae. aegypti mosquitoes (setting [11]) it was 10 #. Also, the “Blood-fed #” value in assay [1] (setting [12]) was 11 #. For the same compound, the “Bite Protection (%)” value in the assay on Ae. aegypti mosquitoes (setting [4]) is on record as 100%; with Ae. aegypti mosquitoes (setting [7]) it was 100%; in the assay on Ae. aegypti mosquitoes (setting [9]) it was 86.7%; in the assay on Ae. aegypti mosquitoes (setting [10]), 71.5%; with Ae. aegypti mosquitoes (setting [11]) it was 94.0%; in assay [1] (setting [12]), −28.5%. In assay [1] (permethrin sleeve 0.135 mg/cm^2 + untreated strip, hand ungloved, listed as permethrin), the “Bite Protection (%)” value is recorded as “increased bites on the skin”. For the same compound, the “Fed (%)” value with Ae. aegypti mosquitoes (setting [5]) stood at 0.0%; with Ae. aegypti mosquitoes (setting [6]) it was 18.1%; in the assay with Ae. aegypti mosquitoes (setting [7]) it was 0.0%; with Ae. aegypti mosquitoes (setting [9]), 10.5%; with Ae. aegypti mosquitoes (setting [10]), 7.6%; in the assay on Ae. aegypti mosquitoes (setting [11]), 4.9%. For the same compound, the “Fed (%)” value in assay [1] (setting [12]) was found to be 52.3%.

With `COCc1c(Cl)c(Cl)c(COC(=O)[C@@H]2[C@@H](C=C(C)C)C2(C)C)c(Cl)c1Cl` [TL-I-73], the “Blood-fed #” value in the assay on Ae. aegypti mosquitoes (setting [3]) is reported as 0 #; in the assay with Ae. aegypti mosquitoes (setting [8]), 0 #; in the assay with Ae. aegypti mosquitoes (FRACU, untreated sleeve + treated strip (20.5 cm × 2.6 cm) at wrist, hand gloved, TL-I-73 0.163, transfluthrin 0.158 mg/cm^2) it was 71 #; in the assay on Ae. aegypti mosquitoes (FRACU, untreated sleeve + treated strip, Ultrathon 12 hr repellent (34.34% DEET) on hand, TL-I-73 0.163, transfluthrin 0.158 mg/cm^2) it was 85 #; in assay [1] (setting [15]) it was 7 #. Further, the “Bite Protection (%)” value with Ae. aegypti mosquitoes (setting [4]) is on record as 100%; in the assay with Ae. aegypti mosquitoes (setting [7]), 100%; in the assay with Ae. aegypti mosquitoes (setting [13]), −45%; with Ae. aegypti mosquitoes (setting [14]) it was 57.2%; in assay [1] (setting [15]) it was 21.8%. Moreover, the “Fed (%)” value in the assay on Ae. aegypti mosquitoes (setting [5]) came out at 0.0%; in the assay with Ae. aegypti mosquitoes (setting [7]) it was 0.0%; with Ae. aegypti mosquitoes (setting [13]), 38.8%; in the assay on Ae. aegypti mosquitoes (setting [14]) it was 10.5%; in assay [1] (setting [15]), 31.8%. In addition, the “Knockdown 6 min (%)” value in assay [2] (2.5 nM\cm^2, K&D module) stood at 97%; in assay [2] (25 nM\cm^2, K&D module), 97%. Moreover, the “Knockdown 1 hour (%)” value in assay [2] (2.5 nM\cm^2, K&D module) is 100%; in assay [2] (25 nM\cm^2, K&D module), 100%. Also, the “Knockdown 24 hours (%)” value in assay [2] (2.5 nM\cm^2, K&D module) was 100%; in assay [2] (25 nM\cm^2, K&D module), 100%. In addition, the “Not feeding 3 minutes (%)” value amounted to 100% in assay [2] (2.5 nM\cm^2, K&D module) and 100% in assay [2] (25 nM\cm^2, K&D module).

With `CC(C)=C[C@@H]1[C@@H](C(=O)OCc2c(Cl)c(Cl)c(C)c(Cl)c2Cl)C1(C)C` [TL-I-109], in assay [2] (2.5 nM\cm^2, K&D module), the “Knockdown 6 min (%)” value was determined as 4%, the “Knockdown 1 hour (%)” value is 35%, the “Knockdown 24 hours (%)” value amounted to 6% and the “Not feeding 3 minutes (%)” value is 98%. In addition, in assay [2] (25 nM\cm^2, K&D module), the “Knockdown 6 min (%)” value is recorded as 4%, the “Knockdown 1 hour (%)” value was determined as 58%, the “Knockdown 24 hours (%)” value is 37% and the “Not feeding 3 minutes (%)” value was 98%.

Take `Cc1c(Cl)c(Cl)c(COC(=O)C2C(C=C(Cl)Cl)C2(C)C)c(Cl)c1Cl` (centres unmarked) [TL-I-111]: in assay [2] (2.5 nM\cm^2, K&D module), the “Knockdown 6 min (%)” value is given as 0%, the “Knockdown 1 hour (%)” value was 16%, the “Knockdown 24 hours (%)” value was determined as 8% and the “Not feeding 3 minutes (%)” value worked out at 90%. Besides, in assay [2] (25 nM\cm^2, K&D module), the “Knockdown 6 min (%)” value stood at 2%, the “Knockdown 1 hour (%)” value is recorded as 23%, the “Knockdown 24 hours (%)” value is 16% and the “Not feeding 3 minutes (%)” value was 92%.

As to `Cc1c(Cl)c(Cl)c(COC(=O)C2C(C=C(Cl)C(F)(F)F)C2(C)C)c(Cl)c1Cl` (centres unmarked) [TL-I-113], in assay [2] (2.5 nM\cm^2, K&D module), the “Knockdown 6 min (%)” value worked out at 0%, the “Knockdown 1 hour (%)” value came to 14%, the “Knockdown 24 hours (%)” value turned out to be 9% and the “Not feeding 3 minutes (%)” value is 76%. For the same compound, in assay [2] (25 nM\cm^2, K&D module), the “Knockdown 6 min (%)” value came to 0%, the “Knockdown 1 hour (%)” value is recorded as 34%, the “Knockdown 24 hours (%)” value worked out at 23% and the “Not feeding 3 minutes (%)” value worked out at 92%.

For `Cc1c(F)c(F)c(COC(=O)[C@@H]2[C@@H](C=C(Cl)Cl)C2(C)C)c(F)c1F` [TL-I-141], the “Blood-fed #” value with Ae. aegypti mosquitoes (setting [3]) and with Ae. aegypti mosquitoes (setting [8]) was 0 # throughout. In addition, the “Bite Protection (%)” value in the assay on Ae. aegypti mosquitoes (setting [4]) and in the assay with Ae. aegypti mosquitoes (setting [7]) was 100% throughout. The “Fed (%)” value with Ae. aegypti mosquitoes (setting [5]) and in the assay on Ae. aegypti mosquitoes (setting [7]) was 0.0% in each case. Further, the “Knockdown 6 min (%)” value was found to be 100% in assay [2] (2.5 nM\cm^2, K&D module) and 100% in assay [2] (25 nM\cm^2, K&D module). The “Knockdown 24 hours (%)” value in assay [2] (2.5 nM\cm^2, K&D module) amounted to 100%; in assay [2] (25 nM\cm^2, K&D module) it was 100%. Also, the “Not feeding 3 minutes (%)” value in assay [2] (2.5 nM\cm^2, K&D module) is 100%; in assay [2] (25 nM\cm^2, K&D module) it was 100%. In addition, the “Knockdown 1 hour (%)” value amounted to 100% in assay [2] (2.5 nmol/cm^2, K&D module) and 100% in assay [2] (25 nmol/cm^2, K&D module). The compound further yielded a mortality at 0.0025 µM in assay [2] (Aedes aegypti, 24 h) of 100%. In addition, the mortality at 0.025 µM in assay [2] (Aedes aegypti, 48 h) worked out at 100%.

As for `CC1(C)C(C=C(Cl)Cl)C1C(=O)OC(C#N)c1cccc(Oc2ccccc2)c1` (centres unmarked) [a-cypermethrin, reference compound], in assay [2] (2.5 nM\cm^2, K&D module), the “Knockdown 6 min (%)” value worked out at 67%, the “Knockdown 1 hour (%)” value is 91%, the “Knockdown 24 hours (%)” value was determined as 100% and the “Not feeding 3 minutes (%)” value stood at 81%. Moreover, in assay [2] (25 nM\cm^2, K&D module), the “Knockdown 6 min (%)” value was found to be 83%, the “Knockdown 1 hour (%)” value came to 100%, the “Knockdown 24 hours (%)” value is on record as 100% and the “Not feeding 3 minutes (%)” value was 98%.
